Where a name gives a salt, the structure may show the parent alone. Read-outs that look alike come from different tables or passages of the source.
How the values were obtained:
[1] = molecular target: T1, glycine transporter-1 (GlyT-1) (Homo sapiens, UniProt P48067); experiment: [14C]glycine uptake assay in JAR cells endogenously expressing GlyT-1 (scintillation proximity); type: cell-based
T1 construct: JAR cells (ATCC#HTB-144), which endogenously express GlyT-1; host or cells: JAR human choriocarcinoma cells
T1 sequence (P48067 1-706): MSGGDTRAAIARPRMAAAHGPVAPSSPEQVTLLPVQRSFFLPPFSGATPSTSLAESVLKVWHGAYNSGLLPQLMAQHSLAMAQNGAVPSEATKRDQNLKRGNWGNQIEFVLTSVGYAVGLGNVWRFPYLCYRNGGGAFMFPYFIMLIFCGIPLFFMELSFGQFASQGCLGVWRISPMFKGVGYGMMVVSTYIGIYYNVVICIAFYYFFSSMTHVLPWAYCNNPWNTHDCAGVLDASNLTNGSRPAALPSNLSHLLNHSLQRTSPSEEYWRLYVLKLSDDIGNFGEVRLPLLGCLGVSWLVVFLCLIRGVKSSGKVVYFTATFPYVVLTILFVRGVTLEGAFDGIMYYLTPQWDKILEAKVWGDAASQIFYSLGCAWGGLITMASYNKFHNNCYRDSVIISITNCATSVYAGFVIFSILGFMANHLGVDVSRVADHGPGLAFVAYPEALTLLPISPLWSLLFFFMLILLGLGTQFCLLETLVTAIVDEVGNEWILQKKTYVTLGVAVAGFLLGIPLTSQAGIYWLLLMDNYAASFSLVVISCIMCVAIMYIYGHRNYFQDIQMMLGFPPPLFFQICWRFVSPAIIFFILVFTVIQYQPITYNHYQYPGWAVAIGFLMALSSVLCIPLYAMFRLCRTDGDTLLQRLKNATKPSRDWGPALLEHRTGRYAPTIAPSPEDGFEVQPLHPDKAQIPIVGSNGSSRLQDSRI
Outline: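 Human choriocarcinoma JAR cells (endogenous GlyT-1) attached overnight, then pre-incubated 10 min at room temperature with compound in pH 7.4 Hepes uptake buffer containing 5 mM alanine and 0.75% DMSO. Uptake of 5 μM [14C]glycine over 3 h at 37 °C read by scintillation proximity; IC50 from four-parameter fit of nine-point curves.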

[2] = molecular target: T2, glycine transporter-2 (GlyT-2) (Homo sapiens, UniProt Q9Y345); experiment: [14C]glycine uptake assay in HEK-GlyT-2 transfected cells; type: cell-based; conditions: HEK-GlyT-2 cells
T2 construct: expressed in transfected cells
T2 sequence (Q9Y345 1-797): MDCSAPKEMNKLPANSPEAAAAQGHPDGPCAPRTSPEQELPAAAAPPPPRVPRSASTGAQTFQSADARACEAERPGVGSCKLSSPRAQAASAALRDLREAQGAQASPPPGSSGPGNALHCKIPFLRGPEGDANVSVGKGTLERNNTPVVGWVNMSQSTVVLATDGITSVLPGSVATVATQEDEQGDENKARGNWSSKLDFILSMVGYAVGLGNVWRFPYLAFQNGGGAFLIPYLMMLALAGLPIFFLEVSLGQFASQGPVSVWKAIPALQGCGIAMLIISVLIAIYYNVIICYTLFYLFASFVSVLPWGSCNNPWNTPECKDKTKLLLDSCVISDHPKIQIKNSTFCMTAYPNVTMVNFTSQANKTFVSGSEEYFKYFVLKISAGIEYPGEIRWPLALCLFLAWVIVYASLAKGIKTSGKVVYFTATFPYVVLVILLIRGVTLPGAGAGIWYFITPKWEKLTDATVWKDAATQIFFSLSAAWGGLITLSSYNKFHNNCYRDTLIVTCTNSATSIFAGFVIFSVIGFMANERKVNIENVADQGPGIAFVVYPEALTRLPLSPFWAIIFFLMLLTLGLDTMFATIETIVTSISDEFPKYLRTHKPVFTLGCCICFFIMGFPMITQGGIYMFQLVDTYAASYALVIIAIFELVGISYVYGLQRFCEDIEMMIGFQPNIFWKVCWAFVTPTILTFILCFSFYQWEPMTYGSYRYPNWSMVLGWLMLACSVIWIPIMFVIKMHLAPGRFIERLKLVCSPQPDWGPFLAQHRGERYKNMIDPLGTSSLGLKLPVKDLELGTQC

[3] = JAR cells, [14C]glycine 5 μM, 3 hour incubation, read-out: GlyT-1 IC50

Structure (SMILES)	IC50 [1, 3]	IC50 [2]	IC50 ([1]; GlyT-1 IC50 (nM))
CCCS(=O)(=O)N1CCN(C2(CNC(=O)c3ccc(Cl)cc3Cl)CCCC2)CC1 [compound 72, 2,4-Dichloro-N-((1-(4-(propylsulfonyl)piperazin-1-yl)cyclopentyl)methyl) benzamide Hydrochloride]	171 nM	> 75 µM	
Cn1cnc(S(=O)(=O)N2CCN(C3(CNC(=O)c4ccc(Cl)cc4Cl)CCCCC3)CC2)c1 [compound 97, 2,4-Dichloro-N-((1-(4-(1-methyl-1H-imidazol-4-ylsulfonyl)piperazin-1-yl)cyclohexyl)methyl) benzamide Hydrochloride]	2 nM	> 75 µM	
CCCS(=O)(=O)N1CCN(C2(CNC(=O)c3ccc(C(F)(F)F)cc3Cl)CCC(F)(F)CC2)CC1C (stereo not shown) [compound 256, 2-Chloro-N-((4,4-difluoro-1-(3-methyl-4-(propylsulfonyl)piperazin-1-yl)cyclohexyl)methyl)-4-(trifluoromethyl) benzamide Hydrochloride]	133 nM	> 75 µM	
Cn1cc(S(=O)(=O)N2CCN(C3(CNC(=O)c4c(F)cccc4F)CCCCC3)CC2)nn1 [compound 114, 2,6-Difluoro-N-((1-(4-(1-methyl-1H-1,2,3-triazol-4-ylsulfonyl)piperazin-1-yl)cyclohexyl)methyl) benzamide Hydrochloride]	2 nM	> 75 µM	
Cn1cnc(S(=O)(=O)N2CCN(C3(CNC(=O)c4ccc(Cl)cc4Cl)CCCC3)CC2)c1 [compound 105, Hydrochloride]	102 nM	> 75 µM	
Cn1cnc(S(=O)(=O)N2CCN(C3(CNC(=O)c4c(Cl)cccc4C(F)(F)F)CCC(F)(F)CC3)CC2)c1 [compound 185, 2-Chloro-N-((4,4-difluoro-1-(4-(1-methyl-1H-imidazol-4-ylsulfonyl)piperazin-1-yl)cyclohexyl)methyl)-6-(trifluoromethyl)benzamide Hydrochloride]	6 nM	> 75 µM	
O=C(NCC1(N2CCN(S(=O)(=O)CC3CC3)CC2)CCCCC1)c1ccc(Cl)cc1Cl [compound 84, 2,4-Dichloro-N-((1-(4-(cyclopropylmethyl-sulfonyl)piperazin-1-yl)cyclohexyl)methyl) benzamide Hydrochloride]	56 nM	> 75 µM	
O=C(NCC1(N2CCN(S(=O)(=O)N3CCCC3)CC2)CCC(F)(F)CC1)c1ccc(C(F)(F)F)cc1Cl [compound 270, 2-Chloro-N-((4,4-difluoro-1-(4-(pyrrolidin-1-ylsulfonyl)piperazin-1-yl)cyclohexyl)methyl)-4-(trifluoromethyl)benzamide Hydrochloride]	47 nM	> 75 µM	
CCCS(=O)(=O)N1CCN(C2(CNC(=O)c3cccc(C(F)(F)F)c3Cl)CCCCCC2)CC1 [compound 59, 2-Chloro-N-((1-(4-(propylsulfonyl)piperazin-1-yl)cycloheptyl)methyl)-3-(trifluoromethyl) benzamide Hydrochloride]	128 nM	> 75 µM	
CCCS(=O)(=O)N1CCN(C2(CNC(=O)c3ccccc3OC(F)(F)F)CCC(F)(F)CC2)CC1 [compound 141, N-((4,4-Difluoro-1-(4-(propylsulfonyl)piperazin-1-yl)cyclohexyl)methyl)-2-(trifluoromethoxy) benzamide Hydrochloride]	48 nM	> 75 µM	
CCCS(=O)(=O)N1CCN(C2(CNC(=O)c3ccc(F)cc3OC)CCCCCC2)CC1 [compound 52, 4-Fluoro-2-methoxy-N-((1-(4-(propylsulfonyl)piperazin-1-yl)cycloheptyl)methyl) benzamide Hydrochloride]	404 nM	> 75 µM	
CCCS(=O)(=O)N1CCN(C2(CNC(=O)c3cccc(C(F)(F)F)c3Cl)CCCCC2)CC1 [compound 22, 2-Chloro-N-((1-(4-(propylsulfonyl)piperazin-1-yl)cyclohexyl)methyl)-3-(trifluoromethyl) benzamide Hydrochloride]		41.3 µM	77 nM
CCCS(=O)(=O)N1CCN(C2(CNC(=O)c3c(N)cccc3Cl)CCN(C)CC2)CC1 [compound 116, 2-Amino-6-chloro-N-((1-methyl-4-(4-(propylsulfonyl)piperazin-1-yl)piperidin-4-yl)methyl)benzamide Hydrochloride]	500 nM	> 75 µM	
Cn1cc(S(=O)(=O)N2CCN(C3(CNC(=O)c4c(F)cccc4F)CCCC3)CC2)nn1 [compound 108, 2,6-Difluoro-N-((1-(4-(1-methyl-1H-1,2,3-triazol-4-ylsulfonyl)piperazin-1-yl)cyclopentyl)methyl) benzamide Hydrochloride]	55 nM	> 75 µM	
CCCS(=O)(=O)N1CCN(C2(CNC(=O)c3ccccc3OC(F)(F)F)CCCCC2)CC1 [compound 4, N-((1-(4-(Propylsulfonyl)piperazin-1-yl)cyclohexyl)methyl)-2-(trifluoromethoxy) benzamide Hydrochloride]	22 nM	39.1 µM	
CCCS(=O)(=O)N1CCN(C2(CNC(=O)c3cccc(OC)c3)CCCCC2)CC1 [compound 29, 3-Methoxy-N-((1-(4-(propylsulfonyl)piperazin-1-yl)cyclohexyl)methyl) benzamide Hydrochloride]	766 nM	> 75 µM	
CCCS(=O)(=O)N1CCN(C2(CNC(=O)c3ccccc3Cl)CCC(F)(F)CC2)CC1 [compound 139, 2-Chloro-N-((4,4-difluoro-1-(4-(propylsulfonyl)piperazin-1-yl)cyclohexyl)methyl) benzamide Hydrochloride]	54 nM	> 75 µM	
Cn1cc(S(=O)(=O)N2CCN(C3(CNC(=O)c4c(F)cc(F)cc4F)CCC(F)(F)CC3)CC2)nn1 [compound 234, N-((4,4-Difluoro-1-(4-(1-methyl-1H-1,2,3-triazol-4-ylsulfonyl)piperazin-1-yl)cyclohexyl)methyl)-2,4,6-trifluorobenzamide Hydrochloride]	4 nM	> 75 µM	
CCCS(=O)(=O)N1CCN(C2(CNC(=O)c3c(OC)cc(F)cc3SC)CCCC2)CC1 [compound 74, 4-Fluoro-2-methoxy-6-(methylthio)-N-((1-(4-(propylsulfonyl)piperazin-1-yl)cyclopentyl)methyl) benzamide Hydrochloride]	131 nM	> 75 µM	
CCCS(=O)(=O)N1CCN(C2(CNC(=O)c3c(C)cccc3C)CCCCC2)CC1 [compound 47, 2,6-Dimethyl-N-((1-(4-(propylsulfonyl)piperazin-1-yl)cyclohexyl)methyl) benzamide Hydrochloride]	12 nM	> 75 µM	
Cn1cc(S(=O)(=O)N2CCN(C3(CNC(=O)c4c(Cl)cccc4Cl)CCCC3)CC2)nn1 [compound 109, 2,6-Dichloro-N-((1-(4-(1-methyl-1H-l,2,3-triazol-4-ylsulfonyl)piperazin-1-yl)cyclopentyl)methyl) benzamide Hydrochloride]	31 nM	> 75 µM	
Cn1cnc(S(=O)(=O)N2CCN(C3(CNC(=O)c4c(F)cccc4F)CCCCC3)CC2)c1 [compound 98, 2,6-Difluoro-N-((1-(4-(1-methyl-1H-imidazol-4-ylsulfonyl)piperazin-1-yl)cyclohexyl)methyl) benzamide Hydrochloride]	4 nM	> 75 µM	
O=C(NCC1(N2CCN(S(=O)(=O)C3CCC3)CC2)CCCCC1)c1ccc(Cl)cc1Cl [compound 93, 2,4-Dichloro-N-((1-(4-(cyclobutylsulfonyl)piperazin-1-yl)cyclohexyl)methyl)benzamide Hydrochloride]	319 nM	> 75 µM	

— patent publication US9045445B2, “Glycine transporter-1 inhibitors, methods of making them, and uses thereof” (Albany Molecular Research, Inc., priority 2010, dated 2015)
